# Data: ChEMBL document CHEMBL3885881, “DrugMatrix”
# Organism: Rattus norvegicus
# Assay: DrugMatrix - Regimen: Daily Repeat
# Assay type: toxicity, organism-based, Sprague-Dawley
# Set-up: regimen Daily Repeat, gender Male, age 6-8 weeks
# Conditions: in vivo, po, route oral GAVAGE, vehicle .5 % CMC; for ABSOLUTE BASOPHIL / ABSOLUTE EOSINOPHIL / ABSOLUTE LYMPHOCYTE / ABSOLUTE MONOCYTE / ABSOLUTE SEGMENTED NEUTROPHIL / BASOPHIL / EOSINOPHIL / ERYTHROCYTE COUNT / HEMATOCRIT / HEMOGLOBIN / LEUKOCYTE COUNT / LYMPHOCYTE / MEAN CORPUSCULAR HEMOGLOBIN / MEAN CORPUSCULAR HEMOGLOBIN CONCENTRATION / MEAN CORPUSCULAR VOLUME / MONOCYTE / NEUTROPHIL / NUCLEATED RED BLOOD CELLS / PLATELET COUNT: tissue Blood; for ALANINE AMINOTRANSFERASE / ALBUMIN / ALKALINE PHOSPHATASE / ASPARTATE AMINOTRANSFERASE / BLOOD UREA NITROGEN / CARBON DIOXIDE / CHLORIDE / CHOLESTEROL / CREATINE PHOSPHOKINASE / CREATININE / GLUCOSE / LACTATE DEHYDROGENASE / LIPASE / PHOSPHORUS / POTASSIUM / SODIUM / TOTAL BILIRUBIN / TOTAL PROTEIN / URIC ACID: tissue Plasma
# [1] = 0 mg/kg, 72 h, dose level Control, time 3 day
# [2] = 0 mg/kg, 120 h, dose level Control, time 5 day
# [3] = 20 mg/kg, 72 h, dose level Low, time 3 day
compound,measurement,setting,value
CC(C)(C)NC(=O)[C@@H]1C[C@@H]2CCCC[C@@H]2CN1C[C@@H](O)[C@H](Cc1ccccc1)NC(=O)[C@H](CC(N)=O)NC(=O)c1ccc2ccccc2n1,ABSOLUTE BASOPHIL,[1],0 CELLS/uL
same,ABSOLUTE EOSINOPHIL,[1],222.83 CELLS/uL
same,ABSOLUTE LYMPHOCYTE,[1],14453 CELLS/uL
same,ABSOLUTE MONOCYTE,[1],0 CELLS/uL
same,ABSOLUTE SEGMENTED NEUTROPHIL,[1],1490.83 CELLS/uL
same,BASOPHIL,[1],0%
same,EOSINOPHIL,[1],1.33%
same,ERYTHROCYTE COUNT,[1],5.76 x10E6/uL
same,HEMATOCRIT,[1],36.52%
same,HEMOGLOBIN,[1],13.45 G/DL
same,LEUKOCYTE COUNT,[1],16.17 x10E3/uL
same,LYMPHOCYTE,[1],89.33%
same,MEAN CORPUSCULAR HEMOGLOBIN,[1],23.37 pg
same,MEAN CORPUSCULAR HEMOGLOBIN CONCENTRATION,[1],36.85 G/DL
same,MEAN CORPUSCULAR VOLUME,[1],63.47 fL
same,MONOCYTE,[1],0%
same,NEUTROPHIL,[1],9.33%
same,NUCLEATED RED BLOOD CELLS,[1],0 /100WBC
same,PLATELET COUNT,[1],1239.5 x10E3/uL
same,ALANINE AMINOTRANSFERASE,[1],43.83 u/L
same,ALBUMIN,[1],4.27 G/DL
same,ALKALINE PHOSPHATASE,[1],398.83 u/L
same,ASPARTATE AMINOTRANSFERASE,[1],81.17 u/L
same,BLOOD UREA NITROGEN,[1],17.67 mg/dL
same,CARBON DIOXIDE,[1],27.5 mmol/L
same,CHLORIDE,[1],99.17 MEQ/L
same,CHOLESTEROL,[1],74 mg/dL
same,CREATINE PHOSPHOKINASE,[1],331.5 u/L
same,CREATININE,[1],0.2 mg/dL
same,GLUCOSE,[1],171.33 mg/dL
same,LACTATE DEHYDROGENASE,[1],241.67 u/L
same,LIPASE,[1],9.5 u/L
same,PHOSPHORUS,[1],12.25 mg/dL
same,POTASSIUM,[1],6.33 MEQ/L
same,SODIUM,[1],141.28 MEQ/L
same,TOTAL BILIRUBIN,[1],0.15 mg/dL
same,TOTAL PROTEIN,[1],5.98 G/DL
same,URIC ACID,[1],1.63 mg/dL
same,ABSOLUTE BASOPHIL,[2],0 CELLS/uL
same,ABSOLUTE EOSINOPHIL,[2],148.67 CELLS/uL
same,ABSOLUTE LYMPHOCYTE,[2],16020.5 CELLS/uL
same,ABSOLUTE MONOCYTE,[2],29.17 CELLS/uL
same,ABSOLUTE SEGMENTED NEUTROPHIL,[2],1468.33 CELLS/uL
same,BASOPHIL,[2],0%
same,EOSINOPHIL,[2],1%
same,ERYTHROCYTE COUNT,[2],5.78 x10E6/uL
same,HEMATOCRIT,[2],35.77%
same,HEMOGLOBIN,[2],13.4 G/DL
same,LEUKOCYTE COUNT,[2],17.67 x10E3/uL
same,LYMPHOCYTE,[2],90.5%
same,MEAN CORPUSCULAR HEMOGLOBIN,[2],23.22 pg
same,MEAN CORPUSCULAR HEMOGLOBIN CONCENTRATION,[2],37.47 G/DL
same,MEAN CORPUSCULAR VOLUME,[2],61.92 fL
same,MONOCYTE,[2],0.17%
same,NEUTROPHIL,[2],8.33%
same,NUCLEATED RED BLOOD CELLS,[2],0.17 /100WBC
same,PLATELET COUNT,[2],1255.5 x10E3/uL
same,ALANINE AMINOTRANSFERASE,[2],46.5 u/L
same,ALBUMIN,[2],4.38 G/DL
same,ALKALINE PHOSPHATASE,[2],336 u/L
same,ASPARTATE AMINOTRANSFERASE,[2],76.5 u/L
same,BLOOD UREA NITROGEN,[2],20 mg/dL
same,CARBON DIOXIDE,[2],27.5 mmol/L
same,CHLORIDE,[2],101 MEQ/L
same,CHOLESTEROL,[2],71.33 mg/dL
same,CREATINE PHOSPHOKINASE,[2],231.83 u/L
same,CREATININE,[2],0.37 mg/dL
same,GLUCOSE,[2],168.83 mg/dL
same,LACTATE DEHYDROGENASE,[2],174 u/L
same,LIPASE,[2],8.67 u/L
same,PHOSPHORUS,[2],11.48 mg/dL
same,POTASSIUM,[2],6.82 MEQ/L
same,SODIUM,[2],143.8 MEQ/L
same,TOTAL BILIRUBIN,[2],0.2 mg/dL
same,TOTAL PROTEIN,[2],5.98 G/DL
same,URIC ACID,[2],1.83 mg/dL
same,ABSOLUTE BASOPHIL,[3],0 CELLS/uL
same,ABSOLUTE EOSINOPHIL,[3],240.67 CELLS/uL
same,ABSOLUTE LYMPHOCYTE,[3],11319.33 CELLS/uL
same,ABSOLUTE MONOCYTE,[3],32 CELLS/uL
same,ABSOLUTE SEGMENTED NEUTROPHIL,[3],1141.33 CELLS/uL
same,BASOPHIL,[3],0%
same,EOSINOPHIL,[3],1.67%
same,ERYTHROCYTE COUNT,[3],5.23 x10E6/uL
same,HEMATOCRIT,[3],32.43%
same,HEMOGLOBIN,[3],12.37 G/DL
same,LEUKOCYTE COUNT,[3],12.73 x10E3/uL
same,LYMPHOCYTE,[3],89%
same,MEAN CORPUSCULAR HEMOGLOBIN,[3],23.63 pg
same,MEAN CORPUSCULAR HEMOGLOBIN CONCENTRATION,[3],38.13 G/DL
same,MEAN CORPUSCULAR VOLUME,[3],62 fL
same,MONOCYTE,[3],0.33%
same,NEUTROPHIL,[3],9%
same,NUCLEATED RED BLOOD CELLS,[3],0 /100WBC
same,PLATELET COUNT,[3],1264.33 x10E3/uL
same,ALANINE AMINOTRANSFERASE,[3],43.67 u/L
same,ALBUMIN,[3],4.1 G/DL
same,ALKALINE PHOSPHATASE,[3],371.33 u/L
same,ASPARTATE AMINOTRANSFERASE,[3],73.67 u/L
same,BLOOD UREA NITROGEN,[3],14.33 mg/dL
same,CARBON DIOXIDE,[3],25.67 mmol/L
same,CHLORIDE,[3],102 MEQ/L
same,CHOLESTEROL,[3],79.67 mg/dL
same,CREATINE PHOSPHOKINASE,[3],319.67 u/L
same,CREATININE,[3],0.15 mg/dL
same,GLUCOSE,[3],144.67 mg/dL
same,LACTATE DEHYDROGENASE,[3],139.33 u/L
same,LIPASE,[3],8 u/L
same,PHOSPHORUS,[3],12.8 mg/dL
same,POTASSIUM,[3],6.81 MEQ/L
same,SODIUM,[3],142.53 MEQ/L
same,TOTAL BILIRUBIN,[3],0.2 mg/dL
same,TOTAL PROTEIN,[3],5.67 G/DL
same,URIC ACID,[3],1.47 mg/dL
